Data on eight molecules can be found in US20240125770A1, “CELL ANALYSIS” (University of Dundee, priority 2021, published 2024).

For this test, the system named is human iPSC lines. The test is described as follows: Cell painting assay (image-based cell phenotyping) on a panel of human iPSC lines from different donors. As to conditions: 24 hrs; for Uniformity or variation of response between human iPSC lines in UMAP embedding: panel of human iPSC lines from different donors, concentration of Table 2 (5 μM; fenbendazole 3.34 μM); for UMAP embedding of cell painting features: cluster: panel of HipSci human iPSC lines, clusters: 1 DMSO and weak responders, 2 Atorvastatin, Simvastatin, Fluphenazine, 3 Afatinib, Erlotinib, Everolimus and Rapamycin, 4 DNA damaging agents and topoisomerase inhibitors, 5 non-microtubule targeting cytotoxics, 6 Microtubule polymerization effectors; for Response to drug in UMAP embedding, cell lines paim3 and pelm1: paim3 and pelm1 lines (FIG. 7 legend prints pelm3); for Changes of features in the cell nucleus across cell lines: etoposide 1.7 μM, irinotecan 5 μM, nuclear painting probes. As to the method: 384-well tissue culture plates (CellCarrier-384 Ultra Microplates, Perkin Elmer 6057300) were coated with human plasma fibronectin (Merck Millipore FC010) at a concentration of 5 μg/cm^2. Cells were passaged as described above with TrypLE Select, counted and seeded on the fibronectin coated wells at a concentration of 3×10^4/cm^2. Cell line plating was in rows, with three wells per condition for each cell line. Cells were incubated for 24 hrs prior to drug treatment, followed by a further 24 hrs incubation before final fixation and staining and high content imaging. Antibody staining of a separate 384-well plate at 48 hrs confirmed that pluripotency was maintained at 48 hrs.
All fixation, permeabilisation and immunostaining were performed at room temperature. Paraformaldehyde 8% in PBS (PFA, Sigma F8775) was added to an equal volume of medium for a final concentration of 4% and incubated for 15 min. Fixed cells were washed in PBS and permeabilised with 0.1% v/v Triton-X100 (Sigma) for 15 min. Following permeabilisation, cells were washed in TBS and stained with DAPI (Thermo Fisher D1306), SYTO 14 (Thermo Fisher S7576), Concanavalin A (Thermo Fisher C11252), Phalloidin Alexa (Thermo Fisher A12381), and WGA (Thermo Fisher W11262) for 1 hr. Mitotracker (Thermo Fisher M22426) staining was performed in live cells with a 30 min incubation at 37° C. prior to fixation. Cell fixation, permeabilisation, staining and washing steps were performed using automated liquid handling systems (405 plate washer, BioTek—Tempest, Formulatrix).
Drug dosing on 384-well plates was performed using an Echo acoustic liquid handler and corresponding software (Labcyte). Screened compounds were selected from the appropriate chemical library plates containing Cloud library (Enamine) and NPSC Control library. For etoposide drug dosing was performed at 1.7 μM. […]
All imaging data were collected on an InCell 2200 high content imager, with a 20× lens and a Quad2 multichroic mirror (GE, Issaquah, WA).
Raw images were imported into OMERO Plus (Glencoe Software, Inc., (9)) and then processed using a custom pipeline in CellProfiler (8) which segmented nuclei, cytoplasm, golgi and cortical protrusions and calculated a range of defined features. All further steps were executed using the Pandas Python library (10). Features for each plate were normalised by the median of features in DMSO control for that plate. Features whose coefficient of variation was greater than 0.50 were removed from further analysis (typically these were Zernike Phase features). We further removed all features with |Spearman coefficient|>0.98. Z-normalised data were then visualised using principal component analysis (PCA) and Uniform Manifold Approximation and Projection (UMAP (11)). For PCA, we calculated the first 15 principal components and variance included in the first two principal components was 77.1%. UMAP parameters were n_neighbours=15, mindist=0.01 and a cosine metric for scaling distance between points. GO enrichment analysis was carried out using WebGestalt (WEB-based Gene SeT AnaLysis Toolkit) (12)
We next used a selection of human iPSCs from the HipSci cohort to test our ability to detect differential effects of FDA-approved drugs, using an image-based cell phenotyping assay. All selected human iPSC lines were previously subjected to whole genome sequencing (https://www.hipsci.org) and the genome data are publicly available. Cells from selected human iPSC lines (Table 1), were grown in 384 well plates, treated with selected compounds (drugs and concentrations used are shown in Table 2), for 24 hrs, then fixed and stained with cell painting markers (see Materials and Methods). Images were recorded in an automated, plate-based imager, then imported into OMERO (9). Images were segmented with respect to the features, ‘nuclei’, ‘cytoplasm’, ‘Golgi’ and ‘protrusions’, using a custom CellProfiler pipeline (13) and image features were then calculated (˜300 features per cell compartment). […]

“Also recorded” adds a separate entry of the source.

For the molecule `O=c1[nH]cc(F)c(=O)[nH]1` [5-FU], the “Uniformity or variation of response between human iPSC lines in UMAP embedding” value (shortened to “Uniformity or variation”) is “Most cells responded to 5-FU (cluster 1, red, FIG. 3A), but several showed a response indistinguishable from DMSO”.

For `CC(C)c1c(C(=O)Nc2ccccc2)c(-c2ccccc2)c(-c2ccc(F)cc2)n1CC[C@@H](O)C[C@@H](O)CC(=O)O` [Atorvastatin], the “Uniformity or variation” value is listed as “tight clustering in UMAP embedding”. Also, the “Magnitude of response: heatmap of deviations of all features from DMSO” value (all cell lines, before Z normalization, 5 μM, FIG. 5A) is “the magnitude of the responses differ between the different cell lines”. The “UMAP embedding of cell painting features: cluster” value (5 μM) is “cluster 2”.

Turning to `C#Cc1cccc(Nc2ncnc3cc(OCCOC)c(OCCOC)cc23)c1` [Erlotinib], the “Uniformity or variation” value is on record as “differential response of some lines”. Besides, the “Response to drug in UMAP embedding, all other / majority of human iPSC lines” value (human iPSC lines other than paim3 and pelm1, 5 μM) was “resembles rapamycin and everolimus; also recorded: clustered with rapamycin and everolimus”. For the setting “5 μM”, the “Response to drug in UMAP embedding, cell lines paim3 and pelm1” value is recorded as “afatinib cluster”. Also, the “Response to drug in UMAP embedding, cell lines paim3 and pelm1” value (5 μM, listed as erlotinib) was “clustered with afatinib”. Also, the “Response to drug in UMAP embedding, cell line voce2” value (voce2 line (along with the majority of hiPSCs), 5 μM, FIG. 7) was “Erlotinib cluster”. For the same molecule, under “zaie1 line, 5 μM, FIG. 7”, the “Response to drug in UMAP embedding, cell line zaie1” value is reported as “weak responders group”.

With `COc1cc([C@@H]2c3cc4c(cc3[C@@H](O[C@@H]3O[C@@H]5CO[C@@H](C)O[C@H]5[C@H](O)[C@H]3O)[C@H]3COC(=O)[C@H]23)OCO4)cc(OC)c1O` [Etoposide], the “Changes of features in the cell nucleus across cell lines” value is reported as “cause similar changes in multiple cell lines”.

As for `CO[C@H]1C[C@@H]2CC[C@@H](C)[C@@](O)(O2)C(=O)C(=O)N2CCCC[C@H]2C(=O)O[C@H]([C@H](C)C[C@@H]2CC[C@@H](OCCO)[C@H](OC)C2)CC(=O)[C@H](C)/C=C(\C)[C@@H](O)[C@@H](OC)C(=O)[C@H](C)C[C@H](C)/C=C/C=C/C=C/1C` [Everolimus], for the setting “5 μM”, the “UMAP embedding of cell painting features: cluster” value is on record as “cluster 3”.

As to `COC(=O)Nc1nc2ccc(Sc3ccccc3)cc2[nH]1` [Fenbendazole], the “Uniformity or variation” value was “splitting of clusters”.

Turning to `CCc1c2c(nc3ccc(OC(=O)N4CCC(N5CCCCC5)CC4)cc13)-c1cc3c(c(=O)n1C2)COC(=O)[C@]3(O)CC` [Irinotecan], the “Changes of features in the cell nucleus across cell lines” value is reported as “cause similar changes in multiple cell lines”.

Take `O=C(CCCCCCC(=O)Nc1ccccc1)NO` [Vorinostat]: the “Uniformity or variation” value is “splitting of clusters”.
